By viability is commonly meant a per cent measure of how many cells are alive, often set against a control. Low readings indicate more harm to the cells, high ones less harm to the cells. By half-life is commonly meant how long it takes for the measured level to halve. Low values mean fast loss, high ones slow loss. As usually defined, the microsomal CLint is a measure of how fast metabolising enzymes remove a compound, apart from limits set by blood flow. A higher microsomal CLint goes with faster metabolism. By hepatocyte CLint is commonly meant a measure of how fast metabolising enzymes remove a compound, apart from limits set by blood flow. Lower therefore signals slow turnover. What is called fraction unbound is free concentration divided by total concentration.

Structures are written as SMILES. In brackets after ≈: the same amount, converted by molar mass. Read-outs that look alike come from different tables or passages of the source.

A short description of data set [1]: Cytotoxicity assay (MTT). The format is cell-based. The conditions noted are these: human, HepG2 cells, HepG2, 100 μM. How it is done: by addition of 10 µL plasma to samples taken from PBS and vice versa. Samples were stored on ice until the end of the incubation and precipitated protein was removed by centrifugation (15 min, 4 °C, 4,000 g, 2 centrifugation steps). Concentration of the remaining test compound at the different time points was analyzed by HPLC-MS/MS (Vanquish Flex coupled to a TSQ Altis Plus, Thermo Fisher, Dreieich, Germany). The amount of compound bound to protein was calculated using the equation PPB [%] = 100 – 100 x (amount in buffer chamber/amount in […]
To obtain information regarding the toxicity of test compounds, their impact on the viability of human cells was investigated. HepG2 cells (2x10^4 cells per well) were seeded in 96-well, flat-bottomed culture plates in 100 µL culture medium (DMEM containing 10% fetal calve serum, 1% penicillin-streptomycin). Twenty-four hours after seeding the cells, medium was removed and replaced by medium containing test compounds in a final DMSO concentration of 1%.
Compounds were tested in duplicates at a single concentration or, for CC 50 determination, at 8 concentrations that were prepared via 2-fold serial dilutions in 1% DMSO/medium. Epirubicin and doxorubicin were used as positive controls in serial dilutions starting from 10 µM, and rifampicin was used as a negative control (at 100 µM). […]

Data set [2] has as its system M^R -S. aureus N315. In words: microbe, parasite or virus in culture. In kind it is cell-based. The conditions noted are these: Staphylococcus aureus.
Data set [3] has as its system E. coli ΔtolC. The experiment in a line: microbe, parasite or virus in culture. In kind it is cell-based. Conditions: Escherichia coli.
Data set [4] in a line: Metabolic stability in liver microsomes. Conditions: human. A general note: Microsomes from liver hold many membrane-bound enzymes, among them those of drug oxidation.
Data set [5] in a line: in vitro. Conditions: human, microsomes, Liver microsomes Clint.
The nature of data set [6]: Metabolic stability in liver microsomes. Conditions: Wistar, rat.
The test system of data set [7] is Rif^R-S. aureus Newman. The experiment in a line: microbe, parasite or virus in culture. In kind it is cell-based. Conditions: Staphylococcus aureus.
In data set [8] the test system is wt-S. aureus Newman. In kind it is cell-based. Conditions: Staphylococcus aureus.
Data set [9] in a line: in vitro. The format is in vitro ADME. The conditions noted are these: Wistar, rat, plasma. How it is done:
(§1) To determine stability in plasma, the compound (1 µM) was incubated with pooled CD-1 mouse/human or Wistar rat plasma (Neo Biotech, Nanterre, France). Samples were taken by […]
(§2) 10% methanol/acetonitrile). The plasma stability of procain, propantheline and diltiazem were determined in parallel to confirm the enzymatic activity. Samples were stored on ice until the end of the incubation and precipitated protein was removed by centrifugation (15 min, 4 °C, 4,000 g, two centrifugation steps). Concentration of the remaining test compound at the different time points was analyzed by HPLC-MS/MS (Vanquish Flex coupled to a TSQ Altis Plus, Thermo Fisher, Dreieich, Germany). The plasma stability of procain, propantheline and diltiazem were determined in parallel to confirm the enzymatic activity. […]

Data set [10] in a line: Metabolic stability in liver microsomes. The conditions noted are these: C57BL/6, mouse.
Data set [11] concerns wt-M. tuberculosis H37Rv. In words: microbe, parasite or virus in culture. In kind it is cell-based. Conditions: Mycobacterium tuberculosis.
A short description of data set [12]: in vitro. The conditions noted are these: C57BL/6, mouse, microsomes.
For data set [13] the following is noted: Wistar, rat, microsomes, 2 h, 1 µM.
For data set [14], the system named is M^R/V^R-S. aureus Mu50. The experiment in a line: microbe, parasite or virus in culture. In kind it is cell-based. The conditions noted are these: Staphylococcus aureus.
A short description of data set [15]: in vitro. Conditions: mouse, hepatocytes. The format is in vitro ADME. As for the experimental part: Metabolic stability in mouse hepatocytes
For the evaluation of combined phase I and phase II metabolic stability, the compound (1 μM) was incubated with 0.25 x 10^6 cells/mL of pooled mouse hepatocytes (Xenotech, Kansas City, USA). Cells were thawed in Leibovitz’s L-15 medium without phenol red (ThermoFisher Scientific, Waltham, USA). Briefly, cells were transferred into 50 mL of medium, followed by centrifugation at 55 g for 3 min. Supernatant was discarded and the cell count determined after gently resuspending the cell pellet in 1 mL of medium. Hepatocytes were diluted to 0.5 x 10^6 cells/mL and incubated at 37 °C, 700 rpm for 10 min, to achieve the desired final cell count after addition of an equal volume of test compounds in medium, leading to final test concentration of 1 µM at 1% DMSO. Samples were incubated at 37 °C, for 240 min, 700 rpm and the incubation was stopped after defined time points by precipitation of aliquots in 4 […]
methanol/acetonitrile). The metabolic stability of testosterone, verapamil, ketoconazole and 7-hydroxycoumarine were determined in parallel to confirm the enzymatic activity of mouse hepatocytes. Samples were stored on ice until the end of the incubation and precipitated protein was removed by centrif ugation (15 min, 4 °C, 4. 000 g). […]

Data set [16] is described as follows: in vitro. Conditions: Wistar, rat, microsomes.
Data set [17] deals with E. faecalis DSM-20478. In kind it is cell-based. Conditions: Enterococcus faecalis, DSM20478.
A short description of data set [18]: in vitro. The format is in vitro ADME. Conditions: plasma, pH 7.4. How it is done:
Plasma protein binding was determined using the Rapid Equilibrium Dialysis (RED) system (Thermo Fisher Scientific, Waltham MA, USA). Compounds were diluted to 10 µM in 50% murine (CD-1), human or Wistar rat plasma (Neo Biotech, Nanterre, France) in PBS pH 7.4 and added to the respective chamber according to the manufacturer’s protocol, followed by addition of PBS pH 7.4 to the opposite chamber. Samples were taken immediately after addition to the plate as well as after 2, 4 and 5 h by mixing 10 µL with 80 µL ice-cold ice-cold […]
(1 picture or pasted object on this page, not shown here) […]
by addition of 10 µL plasma to samples taken from PBS and vice versa. Samples were stored on ice until the end of the incubation and precipitated protein was removed by centrifugation (15 min, 4 °C, 4,000 g, 2 centrifugation steps). Concentration of the remaining test compound at the different time points was analyzed by HPLC-MS/MS (Vanquish Flex coupled to a TSQ Altis Plus, Thermo Fisher, Dreieich, Germany). […]
Germany). To obtain percent viability for each sample, their ODs were related to those of DMSO controls. At least three independent measurements were performed for each compound. The calculation of CC50 was performed using the nonlinear regression function of GraphPad Prism 10 (GraphPad Software, San Diego, CA, USA).

The nature of data set [19]: in vitro. The format is in vitro ADME. Conditions: plasma. How it is done:
Figure S6: Metabolic stability in human liver microsomes with CYP isozyme involvement. (A) Human microsomal metabolism of MXY A (1) and (B) for MXY (8) in presence of 10 µM CYP inhibitors for CYP3A4 (ketoconazole), CYP1A2 (fluvoxamine), CYP2C9 (sulfaphenazole) or CYP2D6 (quinidine). The remaining test compound compared to t=0 min is given. (C) Corresponding half-lives (t1/2s) and fold increase compared to t1/2 of the compound in absence of inhibitors. Values represent means ± standard deviation (SD) of at least 3 independent measurements. *Mean half-life in presence of DMSO represents only assays where direct comparison to CYP inhibitors was performed; Table 2 of the main text includes additional replicates.
as §1, §2

For data set [20] the following is noted: human, 1 µM.
The conditions of data set [21]: stated as known, reference not given; cited from earlier work.
The nature of data set [22]: Stability during large-scale production and isolation. The conditions noted are these: large-scale production, also with exclusion of light.
Source text: We initially attempted the large-scale production of furan analog 14.

Molecule `COC(=O)N/C=C/CC[C@@H](C)c1cc(O)c(C(=O)/C(C)=C/C=C(\C)CCC(F)(F)F)c(=O)o1` [MYX (8)] had a viability at 48 h, 100 µM in [1] of 44 ± 9%. The MIC in data set [2] was 2 to 4 µg/mL (≈ 4.24 to 8.48 µM); in data set [3] it was 4 µg/mL (≈ 8.48 µM); in data set [7], 2 µg/mL (≈ 4.24 µM); in [8] (NEWMAN), 2 µg/mL (≈ 4.24 µM); in data set [11], 2 µg/mL (≈ 4.24 µM); in data set [14] it was 1 to 2 µg/mL (≈ 2.12 to 4.24 µM). The molecule further showed an MIC in data set [17] greater than 64 µg/mL. In addition, the half-life at 1 µM was 0.867 ± 0.217 h in data set [4]; roughly 2 h in [6]; greater than 4 h in [9]; 1.13 ± 0.117 h in data set [10]; greater than 4 h in [15]; greater than 4 h in data set [19] (CD-1, mouse). In data set [19] (human), the half-life at 1 µM was greater than 4 h. Moreover, the microsomal CLint at 1 µM was 28 µL/min/mg in [5], 21 µL/min/mg in data set [12] and roughly 11.6 µL/min/mg in data set [16]. Further, the “Remaining amount of parent compound at 120 min” value in data set [13] is listed as 49 ± 13%. In addition, in data set [15], the hepatocyte CLint at 1 µM was less than 3.8 µL/min/1e6 cells. Also, the fraction unbound at 10 µM was 0.0036 in data set [18] (CD-1, mouse); 0.0049 in data set [18] (Wistar, rat); 0.0162 in data set [18] (human).
In the case of `CCC/C(C)=C/C=C(\C)C(=O)c1c(O)cc([C@H](C)CC/C=C/NC(=O)OC)oc1=O` [MYX A (1), myxopyronins A], the viability at 48 h, 100 µM in data set [1] worked out at 39 ± 6%. Also, the MIC in [2] was 4 µg/mL (≈ 9.58 µM); in data set [3], 1 to 2 µg/mL (≈ 2.4 to 4.79 µM); in data set [7] it was 2 µg/mL (≈ 4.79 µM); in data set [8] (NEWMAN) it was 2 to 4 µg/mL (≈ 4.79 to 9.58 µM); in [11], 4 µg/mL (≈ 9.58 µM); in data set [14], 1 to 2 µg/mL (≈ 2.4 to 4.79 µM). Besides, the MIC in data set [17] is greater than 64 µg/mL. The half-life at 1 µM in data set [4] was 0.122 ± 0.0417 h; in data set [6], roughly 2 h; in data set [9] it was greater than 4 h; in data set [10], 0.317 ± 0.0667 h; in data set [15], greater than 4 h; in [19] (CD-1, mouse), greater than 4 h. In [19] (human), the half-life at 1 µM was greater than 4 h. Besides, the microsomal CLint at 1 µM was 157 µL/min/mg in data set [5], 76 µL/min/mg in data set [12] and roughly 11.6 µL/min/mg in data set [16]. In data set [13], the “Remaining amount of parent compound at 120 min” value was found to be 51 ± 12%. Besides, the “Liver microsomes Clint” value in [20] was determined as 211 ± 37 µL/min/mg. The molecule further displayed a hepatocyte CLint at 1 µM in [15] of less than 3.8 µL/min/1e6 cells. Besides, the fraction unbound at 10 µM in data set [18] (CD-1, mouse) was 0.0026; in data set [18] (Wistar, rat), 0.0054; in [18] (human), 0.0107.
In the case of `CCCC/C(C)=C/C=C(\C)C(=O)c1c(O)cc([C@H](C)CC/C=C/NC(=O)OC)oc1=O` [MYX B (2)], the “half-life in human liver microsomes” value in data set [21] was 3 min.
`COC(=O)N/C=C/CC[C@@H](C)c1cc(O)c(C(=O)/C(C)=C/C=C(\C)c2ccoc2)c(=O)o1` [compound 14]: in data set [22], the “decomposition during fermentation and isolation” value is on record as “highly susceptible to rapid decomposition”.
In the case of `CO[C@H]1/C=C/O[C@@]2(C)Oc3c(C)c(O)c4c(O)c(c(/C=N/N5CCN(C)CC5)c(O)c4c3C2=O)NC(=O)/C(C)=C\C=C\[C@H](C)[C@H](O)[C@@H](C)[C@@H](O)[C@@H](C)[C@H](OC(C)=O)[C@@H]1C` [rifampin], the MIC in [2] (methicillin-resistant S. aureus N315, read-out: MIC) is 0.0025 µg/mL (≈ 0.00304 µM); in data set [3], 16 µg/mL (≈ 19.4 µM); in [7], greater than 64 µg/mL; in data set [8] (wt-S. aureus Newman, read-out: MIC), 0.005 µg/mL (≈ 0.00608 µM); in data set [11] it was 0.03 µg/mL (≈ 0.0365 µM); in data set [14] (methicillin- and vancomycin-resistant S. aureus Mu50, read-out: MIC), greater than 64 µg/mL. Also, in data set [17] (E. faecalis DSM-20478, read-out: MIC), the MIC came to 1 µg/mL (≈ 1.22 µM).

These data come from paper PMC12728655, “Engineering an Artificial Myxopyronin Derivative with Enhanced Metabolic Stability via Mutasynthesis” (JACS Au, 2025).
